Columns and labels:
[1] = test system: Escherichia coli MG1655 wildtype cells; assay: Carboxin inhibitor experiments (CFU survival, alone and combined with H2O2 or ampicillin; dose response and synergy); format: cell-based
Method: Strains were grown aerobically from an initial inoculation of OD600=0.01 to OD600=0.16-0.20 in 250 mL baffled flasks filled to 1/10th the total volume and shaken at 300 rpm at 37° C. Time-zero samples were collected (200-400 μL), then 1 mL aliquots were transferred to 14 mL test tubes. Carboxin solubilized in 100% ethanol or ethanol alone was added to the tubes. […] Drug synergism was calculated using the Bliss Independence and Highest Single Agent models^52, 53. Specifically, the formula,
was used to calculate synergism with the Bliss Independence model. A and B are the effects of the two drugs in isolation, whereas, BICAB is the combined effect of the two drugs as predicted by the Bliss Independence model. If CAB, the experimentally-determined combined effect of the two drugs, is >BICAB, synergy is observed. In contrast, in the Highest Single Agent model, if CAB>max(A, B) synergy is observed. Since cell death was monitored, the quantitative effect of each compound was defined as the fractional reduction of the population, R=1−CFUt/CFU0, where CFUt is the number of CFUs measured after treatment, and CFU0 is the number of CFUs measured before treatment. R=1 indicates complete loss of the population, R=0 indicates a population in stasis, and R<0 indicates a growing population. […] The Bliss Independence model can be written as follows,
If A is a compound that reduces CFUs, such as ampicillin, its effect above the MIC will be 0≦A≦1, whereas if B is a compound that allows growth at all concentrations, its effect will be B<0 regardless of the concentration. Rearrangement of the above yields,
Since equation 3 yields BICAB/A<1 for all B<0 and 0<A<1, the Highest Single Agent model requires CAB/A>1 and the Bliss Independence model requires CAB/BICAB>1 for synergy, the Highest Single Agent model will always be a more strict synergy requirement under these conditions. […] Modeling Escherichia coli ROS Metabolism

[2] = cited from earlier work
[3] = test system: Escherichia coli MG1655 wildtype and single-gene deletion strains; assay: Antimicrobial sensitivity assays (CFU time course of deletion strains and wildtype treated with oxidants or antibiotics); format: cell-based; conditions: 500 ng/mL gentamicin, FIG. 6C
Method: Escherichia coli MG1655 was used in this study. Genetic deletions of aceA, appB, atpC, cyoA, edd, fumB, fbaB, gdhA, gltB, gnd, mqo, nuoG, pfkB, pta, pykA, rpiB, sdhC, sucC, talB, tktB and zwf were transduced from the Keio single-gene deletion knockout library^63 into MG1655 using the P1 phage method, and confirmed with PCR. The media used for all experiments was M9 minimal media with 10 mM glucose as the sole carbon source or MOPS minimal media with 10 mM glucose (for the HyPer protein experiments).
Strains were grown aerobically from an initial inoculation of OD600=0.01 to OD600=0.16-0.20 in 250 mL baffled flasks filled to 1/10th the total volume and shaken at 300 rpm at 37° C. For menadione, H2O2, and ampicillin sensitivity assays, time-zero samples were collected (200-400 μL), then 1 mL aliquots were transferred to 14 mL test tubes, and appropriate volumes of menadione, H2O2, or ampicillin stock solutions, not in excess of 15 μL, were added to obtain the final concentrations (1 mM menadione, 5 mM H2O2, 7.5 μg/mL ampicillin, 100 ng/mL ofloxacin, 15 ng/mL ciprofloxacin, 500 ng/mL gentamicin, 10 μg/mL tetracycline, and 15 μg/mL chloramphenicol). […] Colony forming units were counted approximately 16-18 hours after plating.

In the case of `CC1=C(C(=O)Nc2ccccc2)SCCO1` [carboxin], the “sensitivity of wildtype cells to ampicillin with carboxin compared to ampicillin alone” value ([1]; 500 μM carboxin + 10 μg/mL ampicillin, FIG. 4F) is reported as “significantly more sensitive”, the “sensitivity of wildtype cells to H2O2 with carboxin compared to H2O2 alone” value ([1]; 500 μM carboxin + 5 mM H2O2, FIG. 4E) is reported as “increased sensitivity” and the “effect of carboxin alone on growth of wildtype cells” value ([1]; carboxin alone, 500 μM, wildtype E. coli, FIGS. 4E, 4F) is reported as “no effect on the growth”. The “lethality / growth of E. coli with carboxin” value ([1]; concentrations as high as 1 mM) was “non-lethal and allowed significant growth” and the “suitability as antibiotic adjuvant, human toxicity” value [2] was “not suitable as an antibiotic adjuvant due to human toxicity issues”.
With `CC1(C)S[C@@H]2[C@H](NC(=O)[C@H](N)c3ccccc3)C(=O)N2[C@H]1C(=O)O` [ampicillin] the “ampicillin concentrations synergistic with carboxin” value ([1]; carboxin 250 μM or greater, Bliss Independence and Highest Single Agent models, FIG. 8) was 7.5 to 10 µg/mL.
In the case of gentamicin, the “sensitivity of many target strains compared to wildtype” value ([3]; many predicted target deletion strains) is reported as “decreased sensitivity” and the “sensitivity of ΔatpC strain compared to wildtype” value ([3]; ΔatpC E. coli) is reported as “increased sensitivity”.

From patent US20150071904A1, “COMPOSITIONS AND METHODS TO BOOST ENDOGENOUS ROS PRODUCTION FROM BACTERIA” (Trustees of Boston University, priority 2012, published 2015)
